Among the data in patent US6638973B2, “Taxane formulations” (FSU Research Foundation, Inc., priority 2000, dated 2003) are IC50 values, retold here.

The first assay concerns HCT116 cells. The assay can be described thus: In vitro cytotoxicity measured by the cell colony formation assay. Format: cell-based. The conditions noted are these: HCT116 cells, 72 h drug incubation, colonies counted after 7 days; ID50 = drug concentration producing 50% inhibition of colony formation; read-out: IN VITRO ID 50 (nm) HCT116. Summed up: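 Colony-forming survival was scored 7 days after a 72 h, 37 °C compound exposure followed by washout into fresh medium.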
For the molecule `CC(=O)O[C@@]12CO[C@@H]1C[C@H](OC(=O)NC1CCCCC1)[C@@]1(C)C(=O)[C@H](O)C3=C(C)[C@@H](OC(=O)[C@H](O)[C@@H](NC(=O)OC(C)(C)C)c4ccco4)C[C@@](O)([C@@H](OC(=O)c4ccccc4)C12)C3(C)C` (stereo partly drawn) [Compound 5373], the IC50 was < 10 nM.
In the case of `CCNC(=O)O[C@H]1C[C@H]2OC[C@@]2(OC(C)=O)C2[C@H](OC(=O)c3ccccc3)[C@]3(O)C[C@H](OC(=O)[C@H](O)[C@@H](NC(=O)OC(C)(C)C)c4ccco4)C(C)=C([C@@H](O)C(=O)[C@@]21C)C3(C)C` (stereo partly drawn) [Compound 5393], the IC50 was < 1 nM.
For `CC(=O)O[C@@]12CO[C@@H]1C[C@H](OC(=O)Nc1ccc(F)c(F)c1)[C@@]1(C)C(=O)[C@H](O)C3=C(C)[C@@H](OC(=O)[C@H](O)[C@@H](NC(=O)OC(C)(C)C)c4ccco4)C[C@@](O)([C@@H](OC(=O)c4ccccc4)C12)C3(C)C` (stereo partly drawn) [Compound 5415], the IC50 is < 1 nM.
As to `CC(=O)O[C@@]12CO[C@@H]1C[C@H](OC(=O)NC(C)(C)C)[C@@]1(C)C(=O)[C@H](O)C3=C(C)[C@@H](OC(=O)[C@H](O)[C@@H](NC(=O)OC(C)(C)C)c4ccco4)C[C@@](O)([C@@H](OC(=O)c4ccccc4)C12)C3(C)C` (stereo partly drawn) [Compound 5454], the IC50 is < 10 nM.
Same read-out and setting: in the case of `CC(=O)O[C@@]12CO[C@@H]1C[C@H](OC(=O)Nc1ccc(F)c(F)c1)[C@@]1(C)C(=O)[C@H](O)C3=C(C)[C@@H](OC(=O)[C@H](O)[C@@H](NC(=O)C=C(C)C)c4ccco4)C[C@@](O)([C@@H](OC(=O)c4ccccc4)C12)C3(C)C` (stereo partly drawn) [Compound 5522] it was < 1 nM.
Consider `CC(=O)O[C@@]12CO[C@@H]1C[C@H](OC(=O)Nc1ccccc1)[C@@]1(C)C(=O)[C@H](O)C3=C(C)[C@@H](OC(=O)[C@H](O)[C@@H](NC(=O)C=C(C)C)c4ccco4)C[C@@](O)([C@@H](OC(=O)c4ccccc4)C12)C3(C)C` (stereo partly drawn) [Compound 5535, N-Debenzoyl-N-isobutenyl-3′-desphenyl-3′-(2-furyl)-7-phenylcarbamoyl taxol], for which the IC50 is < 1 nM.

Staying with this assay, now noted: HCT116 cells, 72 h incubation with drug, colonies counted after 7 days; ID50 = drug concentration producing 50% inhibition of colony formation; read-out: IN VITRO ID 50 (nm) HCT116.
As to `CCOC(=O)O[C@H]1C(=O)[C@@]2(C)C([C@H](OC(=O)c3ccccc3)[C@]3(O)C[C@H](OC(=O)[C@H](O)[C@H](C=C(C)C)NC(=O)OCC(C)C)C(C)=C1C3(C)C)[C@]1(OC(C)=O)CO[C@@H]1C[C@@H]2O` (stereo partly drawn) [Compound 5155], the IC50 was < 10 nM.
On to `CCOC(=O)O[C@H]1C[C@H]2OC[C@@]2(OC(C)=O)C2[C@H](OC(=O)c3ccccc3)[C@]3(O)C[C@H](OC(=O)[C@H](O)[C@@H](NC(=O)OC(C)(C)C)C4CC4)C(C)=C([C@@H](O)C(=O)[C@@]21C)C3(C)C` (stereo partly drawn) [Compound 5165], for which the IC50 was < 1 nM.
With `CCOC(=O)O[C@H]1C(=O)[C@@]2(C)C([C@H](OC(=O)c3ccccc3)[C@]3(O)C[C@H](OC(=O)[C@H](O)[C@@H](NC(=O)OC(C)(C)C)C4CC4)C(C)=C1C3(C)C)[C@]1(OC(C)=O)CO[C@@H]1C[C@@H]2O` (stereo partly drawn) [Compound 5171], the IC50 is < 1 nM.
With `COC(=O)O[C@H]1C[C@H]2OC[C@@]2(OC(C)=O)C2[C@H](OC(=O)c3ccccc3)[C@]3(O)C[C@H](OC(=O)[C@H](O)[C@@H](NC(=O)OCC(C)C)C4CC4)C(C)=C([C@@H](O)C(=O)[C@@]21C)C3(C)C` (stereo partly drawn) [Compound 5211], the IC50 was < 10 nM.
For `CCOC(=O)O[C@H]1C[C@H]2OC[C@@]2(OC(C)=O)C2[C@H](OC(=O)c3ccccc3)[C@]3(O)C[C@H](OC(=O)[C@H](O)[C@@H](NC(=O)OCC(C)C)C4CC4)C(C)=C([C@@H](O)C(=O)[C@@]21C)C3(C)C` (stereo partly drawn) [Compound 5225], the IC50 is < 10 nM.
As for `CC(=O)O[C@@]12CO[C@@H]1C[C@H](OC(=O)OCc1ccccc1)[C@@]1(C)C(=O)[C@H](O)C3=C(C)[C@@H](OC(=O)[C@H](O)[C@@H](NC(=O)OC(C)(C)C)c4ccco4)C[C@@](O)([C@@H](OC(=O)c4ccccc4)C12)C3(C)C` (stereo partly drawn) [Compound 5433], the IC50 was < 1 nM.
On to `CC(=O)O[C@@]12CO[C@@H]1C[C@H](OC(=O)OCc1ccccc1)[C@@]1(C)C(=O)[C@H](O)C3=C(C)[C@@H](OC(=O)[C@H](O)[C@@H](NC(=O)C=C(C)C)c4ccco4)C[C@@](O)([C@@H](OC(=O)c4ccccc4)C12)C3(C)C` (stereo partly drawn) [Compound 5466], for which the IC50 was < 1 nM.

The assay is the same for the next values; noted with them: HCT116 colony formation; 72 h drug incubation, colonies counted after 7 days; Example 5, C-7 ester/C-10 hydroxy taxanes; read-out: IN VITRO ID 50 (nm) HCT116.
On to `CCCC(=O)O[C@H]1C[C@H]2OC[C@@]2(OC(C)=O)C2[C@H](OC(=O)c3ccccc3)[C@]3(O)C[C@H](OC(=O)[C@H](O)[C@@H](NC(=O)OC(C)(C)C)C4CC4)C(C)=C([C@@H](O)C(=O)[C@@]21C)C3(C)C` (stereo partly drawn) [Compound 5080], for which the IC50 is < 1 nM.
Turning to `CCC(=O)O[C@H]1C[C@H]2OC[C@@]2(OC(C)=O)C2[C@H](OC(=O)c3ccccc3)[C@]3(O)C[C@H](OC(=O)[C@H](O)[C@H](C=C(C)C)NC(=O)OCC(C)C)C(C)=C([C@@H](O)C(=O)[C@@]21C)C3(C)C` (stereo partly drawn) [Compound 5121], the IC50 worked out at 21.1 nM.
Regarding `CCCC(=O)O[C@H]1C[C@H]2OC[C@@]2(OC(C)=O)C2[C@H](OC(=O)c3ccccc3)[C@]3(O)C[C@H](OC(=O)[C@H](O)[C@H](C=C(C)C)NC(=O)OCC(C)C)C(C)=C([C@@H](O)C(=O)[C@@]21C)C3(C)C` (stereo partly drawn) [Compound 5131], the IC50 was < 10 nM.
Same read-out and setting: in the case of `CCC(=O)O[C@H]1C[C@H]2OC[C@@]2(OC(C)=O)C2[C@H](OC(=O)c3ccccc3)[C@]3(O)C[C@H](OC(=O)[C@H](O)[C@@H](NC(=O)OCC(C)C)C4CC4)C(C)=C([C@@H](O)C(=O)[C@@]21C)C3(C)C` (stereo partly drawn) [Compound 5191] it was < 10 nM; in that of `CCCC(=O)O[C@H]1C[C@H]2OC[C@@]2(OC(C)=O)C2[C@H](OC(=O)c3ccccc3)[C@]3(O)C[C@H](OC(=O)[C@H](O)[C@@H](NC(=O)OCC(C)C)C4CC4)C(C)=C([C@@H](O)C(=O)[C@@]21C)C3(C)C` (stereo partly drawn) [Compound 5202], < 10 nM.

The assay is the same for the next values; noted with them: HCT116 colony formation; 72 h drug incubation, colonies counted after 7 days; Example 10, C-10 ester/C-7 hydroxy taxanes; read-out: IN VITRO ID 50 (nm) HCT116.
For `CCCC(=O)O[C@H]1C(=O)[C@@]2(C)C([C@H](OC(=O)c3ccccc3)[C@]3(O)C[C@H](OC(=O)[C@H](O)[C@H](C=C(C)C)NC(=O)OCC(C)C)C(C)=C1C3(C)C)[C@]1(OC(C)=O)CO[C@@H]1C[C@@H]2O` (stereo partly drawn) [Compound 5144], the IC50 is < 10 nM.
For the molecule `CC(=O)O[C@@]12CO[C@@H]1C[C@H](O)[C@@]1(C)C(=O)[C@H](OC(=O)C3CC3)C3=C(C)[C@@H](OC(=O)[C@H](O)[C@@H](NC(=O)OCC(C)C)C4CC4)C[C@@](O)([C@@H](OC(=O)c4ccccc4)C12)C3(C)C` (stereo partly drawn) [Compound 5232], the IC50 was < 10 nM.
As to `CCC(=O)O[C@H]1C(=O)[C@@]2(C)C([C@H](OC(=O)c3ccccc3)[C@]3(O)C[C@H](OC(=O)[C@H](O)[C@@H](NC(=O)OC(C)(C)C)c4ccoc4)C(C)=C1C3(C)C)[C@]1(OC(C)=O)CO[C@@H]1C[C@@H]2O` (stereo partly drawn) [Compound 5495], the IC50 was < 1 nM.

Staying with this assay, now noted: HCT116 colony formation; 72 h drug incubation, colonies counted after 7 days; Example 15, C-7 substituted acetate/C-10 hydroxy taxanes; read-out: IN VITRO ID 50 (nm) HCT116.
Turning to `COCC(=O)O[C@H]1C[C@H]2OC[C@@]2(OC(C)=O)C2[C@H](OC(=O)c3ccccc3)[C@]3(O)C[C@H](OC(=O)[C@H](O)[C@@H](NC(=O)OC(C)(C)C)c4ccco4)C(C)=C([C@@H](O)C(=O)[C@@]21C)C3(C)C` (stereo partly drawn) [Compound 5445], the IC50 was < 1 nM.
Still for that read-out and setting: in the case of `COCC(=O)O[C@H]1C[C@H]2OC[C@@]2(OC(C)=O)C2[C@H](OC(=O)c3ccccc3)[C@]3(O)C[C@H](OC(=O)[C@H](O)[C@@H](NC(=O)C=C(C)C)c4ccco4)C(C)=C([C@@H](O)C(=O)[C@@]21C)C3(C)C` (stereo partly drawn) [Compound 5474] it was < 1 nM; in that of `CC(=O)OCC(=O)O[C@H]1C[C@H]2OC[C@@]2(OC(C)=O)C2[C@H](OC(=O)c3ccccc3)[C@]3(O)C[C@H](OC(=O)[C@H](O)[C@@H](NC(=O)C=C(C)C)c4ccco4)C(C)=C([C@@H](O)C(=O)[C@@]21C)C3(C)C` (stereo partly drawn) [Compound 5544], < 1 nM.
